Target: P. falciparum apicoplast DNA polymerase (Pf-apPOL) (Plasmodium falciparum, UniProt Q8ILY1)
Experiment: Fluorescence-based high-throughput DNA polymerase assay (molecular beacon), primary screen and dose-response;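 as to % inhibition ApPOL 90': test concentration in µM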;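 as to % inhibition apPOL 180': test concentration in µM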
Format: biochemical
Summary of the method: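 Single-point screening used 10 µM compound with 20 nM polymerase, 20 nM hairpin substrate and 6 µM dNTPs for 90 min at 25 °C. Confirmatory titrations (2.5–80 µM) followed fluorescence at three times, and IC50 was derived from a fit including a cooperativity term n.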

[1] = supplemental file 2, sheet IC50 nontoxic compounds; Pf-apPOL

Chain of P. falciparum apicoplast DNA polymerase (Pf-apPOL) (Q8ILY1 entry or part of it): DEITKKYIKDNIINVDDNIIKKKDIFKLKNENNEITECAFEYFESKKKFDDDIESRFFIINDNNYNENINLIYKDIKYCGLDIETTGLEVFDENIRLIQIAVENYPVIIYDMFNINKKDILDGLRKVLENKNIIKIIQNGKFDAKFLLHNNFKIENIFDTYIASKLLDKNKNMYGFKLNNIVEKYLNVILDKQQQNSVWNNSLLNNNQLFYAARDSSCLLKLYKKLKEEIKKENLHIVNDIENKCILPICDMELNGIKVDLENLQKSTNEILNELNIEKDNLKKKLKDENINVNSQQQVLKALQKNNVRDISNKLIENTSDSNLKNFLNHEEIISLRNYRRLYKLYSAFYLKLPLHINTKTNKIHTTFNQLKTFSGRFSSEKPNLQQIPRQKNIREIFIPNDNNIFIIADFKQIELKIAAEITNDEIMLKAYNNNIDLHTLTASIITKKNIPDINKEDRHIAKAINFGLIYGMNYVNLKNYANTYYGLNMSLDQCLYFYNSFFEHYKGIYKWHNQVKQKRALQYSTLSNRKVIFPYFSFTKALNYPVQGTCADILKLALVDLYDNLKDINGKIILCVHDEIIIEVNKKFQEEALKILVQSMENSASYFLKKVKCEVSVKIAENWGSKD

Cc1ncc(CSc2nc(C(C)(C)C)cs2)c(CO)c1O [KU0264007]
DNA Pol (186 hits, value of the hit list (primary screen); unit not given; 90 min, 10 µM): 70 | % inhibition Apo pol 10' (DRC-1; 10'; concentration 2.5): 0.8986% | % inhibition Apo pol 10' (DRC-1; 10'; concentration 5): 5.699% | % inhibition Apo pol 10' (DRC-1; 10'; concentration 10): 22.1813% | % inhibition Apo pol 10' (DRC-1; 10'; concentration 20): 37.8368% | % inhibition Apo pol 10' (DRC-1; 10'; concentration 40): 57.9296% | % inhibition Apo pol 10' (DRC-1; 10'; concentration 80): 69.8809% | % inhibition Apol 90' (DRC-1; 90'; concentration 2.5): -0.5136% | % inhibition Apol 90' (DRC-1; 90'; concentration 5): -0.3111% | % inhibition Apol 90' (DRC-1; 90'; concentration 10): 8.991% | % inhibition Apol 90' (DRC-1; 90'; concentration 20): 19.9803% | % inhibition Apol 90' (DRC-1; 90'; concentration 40): 38.5024% | % inhibition Apol 90' (DRC-1; 90'; concentration 80): 54.4417% | % inhibition apPOL 180' (DRC-1; 180'; concentration 2.5): -1.351% | % inhibition apPOL 180' (DRC-1; 180'; concentration 5): -5.176% | % inhibition apPOL 180' (DRC-1; 180'; concentration 10): 0.78% | % inhibition apPOL 180' (DRC-1; 180'; concentration 20): 8.562% | % inhibition apPOL 180' (DRC-1; 180'; concentration 40): 22.9628% | % inhibition apPOL 180' (DRC-1; 180'; concentration 80): 39.37% | % inhibition Apo pol 5' (DRC-2, 5', concentration 2.5): 6.56% | % inhibition Apo pol 5' (DRC-2, 5', concentration 5): 10% | % inhibition Apo pol 5' (DRC-2, 5', concentration 10): 24% | % inhibition Apo pol 5' (DRC-2, 5', concentration 20): 37% | % inhibition Apo pol 5' (DRC-2, 5', concentration 40): 45% | % inhibition Apo pol 5' (DRC-2, 5', concentration 80): 50% | % inhibition Apol 40' (DRC-2, 40', concentration 2.5): 4% | % inhibition Apol 40' (DRC-2, 40', concentration 5): 6.47% | % inhibition Apol 40' (DRC-2, 40', concentration 10): 20% | % inhibition Apol 40' (DRC-2, 40', concentration 20): 35% | % inhibition Apol 40' (DRC-2, 40', concentration 40): 47% | % inhibition Apol 40' (DRC-2, 40', concentration 80): 61% | % inhibition ApPOL 90' (DRC-2, 90', concentration 2.5): 1.8% | % inhibition ApPOL 90' (DRC-2, 90', concentration 5): 2.55% | % inhibition ApPOL 90' (DRC-2, 90', concentration 10): 14% | % inhibition ApPOL 90' (DRC-2, 90', concentration 20): 28% | % inhibition ApPOL 90' (DRC-2, 90', concentration 40): 43% | % inhibition ApPOL 90' (DRC-2, 90', concentration 80): 62% | % inhibition apPOL 180' (DRC-2, 180', concentration 2.5): -3% | % inhibition apPOL 180' (DRC-2, 180', concentration 5): -4.6% | % inhibition apPOL 180' (DRC-2, 180', concentration 10): 2.58% | % inhibition apPOL 180' (DRC-2, 180', concentration 20): 14% | % inhibition apPOL 180' (DRC-2, 180', concentration 40): 30% | % inhibition apPOL 180' (DRC-2, 180', concentration 80): 58% | % inhibition ApPOL 90' (DRC-2; 90'; concentration 10): 14% | % inhibition apPOL 180' (DRC-2; 180'; concentration 20): 14% | DNA Pol (primary screen value, 'DNA Pol' only; 90 min, 10 µM): 70

O=C(O)C(=O)Nc1nc(-c2ccc3c(c2)OCCO3)cs1 [Molecule 82]
IC50 [1]: 40.5 µM

O=C(Nc1nnc(-c2ccno2)o1)c1ccc2ncsc2c1 [Molecule 62, O=C(c1ccc2c(c1)scn2)Nc1nnc(o1)c1ccno1]
DNA Pol ('DNA Pol'; screening value, unit not given; 90 min, 10 µM): 57 | % inhibition Apo pol 10' (DRC-1; 10'; concentration 2.5): 10.861% | % inhibition Apo pol 10' (DRC-1; 10'; concentration 5): 15.6525% | % inhibition Apo pol 10' (DRC-1; 10'; concentration 10): 33.6921% | % inhibition Apo pol 10' (DRC-1; 10'; concentration 20): 64.2838% | % inhibition Apo pol 10' (DRC-1; 10'; concentration 40): 78.1502% | % inhibition Apo pol 10' (DRC-1; 10'; concentration 80): 81.399% | % inhibition Apol 90' (DRC-1; 90'; concentration 2.5): -2.7392% | % inhibition Apol 90' (DRC-1; 90'; concentration 5): 1.406% | % inhibition Apol 90' (DRC-1; 90'; concentration 10): 10.5152% | % inhibition Apol 90' (DRC-1; 90'; concentration 20): 33.263% | % inhibition Apol 90' (DRC-1; 90'; concentration 40): 51.9867% | % inhibition Apol 90' (DRC-1; 90'; concentration 80): 68.6824% | % inhibition apPOL 180' (DRC-1; 180'; concentration 2.5): -12.5523% | % inhibition apPOL 180' (DRC-1; 180'; concentration 5): -8.9419% | % inhibition apPOL 180' (DRC-1; 180'; concentration 10): -4.993% | % inhibition apPOL 180' (DRC-1; 180'; concentration 20): 10.6012% | % inhibition apPOL 180' (DRC-1; 180'; concentration 40): 29.0771% | % inhibition apPOL 180' (DRC-1; 180'; concentration 80): 50.4309% | % inhibition Apo pol 5' (DRC-2, 5', concentration 2.5): 9% | % inhibition Apo pol 5' (DRC-2, 5', concentration 5): 11% | % inhibition Apo pol 5' (DRC-2, 5', concentration 10): 38% | % inhibition Apo pol 5' (DRC-2, 5', concentration 20): 39% | % inhibition Apo pol 5' (DRC-2, 5', concentration 40): 37% | % inhibition Apo pol 5' (DRC-2, 5', concentration 80): 28% | % inhibition Apol 40' (DRC-2, 40', concentration 2.5): 6.5% | % inhibition Apol 40' (DRC-2, 40', concentration 5): 8% | % inhibition Apol 40' (DRC-2, 40', concentration 10): 36% | % inhibition Apol 40' (DRC-2, 40', concentration 20): 42% | % inhibition Apol 40' (DRC-2, 40', concentration 40): 53% | % inhibition Apol 40' (DRC-2, 40', concentration 80): 56% | % inhibition ApPOL 90' (DRC-2, 90', concentration 2.5): 4% | % inhibition ApPOL 90' (DRC-2, 90', concentration 5): 4% | % inhibition ApPOL 90' (DRC-2, 90', concentration 10): 29% | % inhibition ApPOL 90' (DRC-2, 90', concentration 20): 38% | % inhibition ApPOL 90' (DRC-2, 90', concentration 40): 54% | % inhibition ApPOL 90' (DRC-2, 90', concentration 80): 62% | % inhibition apPOL 180' (DRC-2, 180', concentration 2.5): -3% | % inhibition apPOL 180' (DRC-2, 180', concentration 5): -6% | % inhibition apPOL 180' (DRC-2, 180', concentration 10): 14% | % inhibition apPOL 180' (DRC-2, 180', concentration 20): 21% | % inhibition apPOL 180' (DRC-2, 180', concentration 40): 46% | % inhibition apPOL 180' (DRC-2, 180', concentration 80): 61% | % inhibition ApPOL 90' (conc 2.5 (unit not given); 90'; DRC-2): 4% | % inhibition ApPOL 90' (conc 5 (unit not given); 90'; DRC-2): 4% | % inhibition Apo pol 5' (conc 10 (unit not given); 5'; DRC-2): 38% | % inhibition ApPOL 90' (conc 20 (unit not given); 90'; DRC-2): 38% | DNA Pol (primary screen hit value, DNA Pol (186 hits); 90 min, 10 µM): 57

Cc1cccc(NC(=O)Cn2ccc3c(=O)[nH]ccc32)c1C [Molecule 11]
IC50 [1]: 7.57 µM

From paper PMC9090415, “Discovery of small molecule inhibitors of Plasmodium falciparum apicoplast DNA polymerase” (Journal of Enzyme Inhibition and Medicinal Chemistry, 2022)
